Values quoted from earlier work in PubChem BioAssay AID1259409 (Chemical Carcinogenesis Research Information System (CCRIS), 2018).

System: rodent chemically induced tumor inhibition, incidence and multiplicity
Assay: CCRIS tumor inhibitor studies
Conditions: Route [Inhibitor]: ORAL, Species: RAT

Structure (SMILES)	tumour outcome (control, treated, inhibition, significance) (Carcinogen: AZOXYMETHANE, 25843-45-2, Dose [Inhibitor]: 0, 20 PPM IN DIET FOR 32 WK BEGINNING 1 WK POST CARCINOGEN TREATMENT (STUDY DURATION: 36 WK), Strain/Sex: (30,30)/(30,24), Target Tissue: Type of Lesion: SMALL INTESTINE: ADENOMA OR ADENOCARCINOMA, Dose [Carcinogen]: 15 MG/KG BW 1/WK FOR 3 WK, Promoter: NONE USED)	tumour outcome (control, treated, inhibition, significance) (Carcinogen: AZOXYMETHANE, 25843-45-2, Dose [Inhibitor]: 0, 20 PPM IN DIET FOR 32 WK BEGINNING 1 WK POST CARCINOGEN TREATMENT (STUDY DURATION: 36 WK), Strain/Sex: F344/MALE, Target Tissue: Type of Lesion: LARGE INTESTINE: ADENOMA OR ADENOCARCINOMA, Dose [Carcinogen]: 15 MG/KG BW 1/WK FOR 3 WK, Promoter: NONE USED)	tumour outcome (control, treated, inhibition, significance) (Carcinogen: AZOXYMETHANE, 25843-45-2, Dose [Inhibitor]: 0, 100 PPM IN DIET FOR 32 WK BEGINNING 1 WK POST CARCINOGEN TREATMENT (STUDY DURATION: 36 WK), Strain/Sex: F344/MALE, Target Tissue: Type of Lesion: LARGE INTESTINE: ADENOMA OR ADENOCARCINOMA, Dose [Carcinogen]: 15 MG/KG BW 1/WK FOR 3 WK, Promoter: NONE USED)	tumour outcome (control, treated, inhibition, significance) (Carcinogen: AZOXYMETHANE, 25843-45-2, Dose [Inhibitor]: 0, 100 PPM IN DIET FOR 32 WK BEGINNING 1 WK POST CARCINOGEN TREATMENT (STUDY DURATION: 36 WK), Strain/Sex: F344/MALE, Target Tissue: Type of Lesion: SMALL INTESTINE: ADENOMA OR ADENOCARCINOMA, Dose [Carcinogen]: 15 MG/KG BW 1/WK FOR 3 WK, Promoter: NONE USED)	tumour outcome (control, treated, inhibition, significance) (Carcinogen: DIETHYLNITROSAMINE, 55-18-5, Dose [Inhibitor]: 0, 100 PPM IN DIET FOR 4 WK BEGINNING 1 WK PRIOR TO CARCINOGEN TREATMENT (STUDY DURATION: 24 WK), Strain/Sex: F344/MALE, Target Tissue: Type of Lesion: LIVER: HEPATOCELLULAR ADENOMA, Dose [Carcinogen]: 100 MG/KG BW 1/WK FOR 3 WK, Promoter: PHENOBARBITAL, 50-06-6)	tumour outcome (control, treated, inhibition, significance) (Carcinogen: DIETHYLNITROSAMINE, 55-18-5, Dose [Inhibitor]: 0, 100 PPM IN DIET FOR 4 WK BEGINNING 1 WK PRIOR TO CARCINOGEN TREATMENT (STUDY DURATION: 24 WK), Strain/Sex: F344/MALE, Target Tissue: Type of Lesion: LIVER: HEPATOCELLULAR CARCINOMA, Dose [Carcinogen]: 100 MG/KG BW 1/WK FOR 3 WK, Promoter: PHENOBARBITAL, 50-06-6)	tumour outcome (control, treated, inhibition, significance) (Carcinogen: DIETHYLNITROSAMINE, 55-18-5, Dose [Inhibitor]: 0, 100 PPM IN DIET FOR 20 WK BEGINNING 1 WK POST CARCINOGEN TREATMENT (STUDY DURATION: 24 WK), Strain/Sex: F344/MALE, Target Tissue: Type of Lesion: LIVER: HEPATOCELLULAR ADENOMA, Dose [Carcinogen]: 100 MG/KG BW 1/WK FOR 3 WK, Promoter: PHENOBARBITAL, 50-06-6)	tumour outcome (control, treated, inhibition, significance) (Carcinogen: DIETHYLNITROSAMINE, 55-18-5, Dose [Inhibitor]: 0, 100 PPM IN DIET FOR 20 WK BEGINNING 1 WK POST CARCINOGEN TREATMENT (STUDY DURATION: 24 WK), Strain/Sex: F344/MALE, Target Tissue: Type of Lesion: LIVER: HEPATOCELLULAR CARCINOMA, Dose [Carcinogen]: 100 MG/KG BW 1/WK FOR 3 WK, Promoter: PHENOBARBITAL, 50-06-6)	tumour outcome (control, treated, inhibition, significance) (Carcinogen: 7,12-DIMETHYLBENZ(A)ANTHRACENE, 57-97-6, Dose [Inhibitor]: 0.013 MMOL/G IN DIET BEGINNING 1 WK AFTER CARCINOGEN ADMINISTRATION (STUDY DURATION: 23 WK), Strain/Sex: SPRAGUE-DAWLEY/FEMALE, Target Tissue: Type of Lesion: MAMMARY GLAND: TUMOR, Dose [Carcinogen]: 12 MG DMBA IN 1.0 ML OLIVE OIL ONCE, Promoter: NONE USED)
CSS(C)(=O)=O	4/30 (13%), 1/24 (4%), 69%, not significant	17/30 (57%), 9/24 (38%), 33%, not significant	17/30 (57%), 2/28 (7%), 88%, p<0.0001	4/30 (13%), 4/28 (14%), -7%, not significant	95%, 89%, 6%, not significant	70%, 89%, -27%, not significant	95%, 55%, 42%, p<0.005	70%, 81%, -16%, not significant	–
CC(C)(C)N=C=O	–	–	–	–	–	–	–	–	100%, 50%, 50%, p<0.001
